The assay concerns HIV. The assay is described as follows: Table 1 IC50 of the examples (assay method not given; patent concerns inhibiting HIV replication). Format: cell-based. The following applies: Human immunodeficiency virus 1.
In turn, `COc1ccc(C(=O)N2CCc3c2cc(C)c([C@H](OC(C)(C)C)C(=O)O)c3-c2ccc(C)cc2)cc1F` [Example 11, (S)-2-(tert-Butoxy)-2-(1-(3-fluoro-4-methoxybenzoyl)-6-methyl-4-(p-tolyl)indolin-5-yl)acetic acid] had an IC50 of 4 nM. With `COc1cc(C(=O)N2CCc3c2cc(C)c([C@H](OC(C)(C)C)C(=O)O)c3-c2ccc(C)cc2)cc(F)c1F` [Example 12, (S)-2-(tert-Butoxy)-2-(1-(3,4-difluoro-5-methoxybenzoyl)-6-methyl-4-(p-tolyl)indolin-5-yl)acetic acid] the figure was 4 nM; with `COc1ccc(C(=O)N2CCc3c2cc(C)c([C@H](OC(C)(C)C)C(=O)O)c3-c2ccc(C)cc2)cc1` [Example 13, (S)-2-(tert-Butoxy)-2-(1-(4-methoxybenzoyl)-6-methyl-4-(p-tolyl)indolin-5-yl)acetic acid], 11 nM. The value for `Cc1ccc(-c2c3c(cc(C)c2[C@H](OC(C)(C)C)C(=O)O)N(C(=O)c2ccc(F)cc2)CC3)cc1` [Example 14, (S)-2-(tert-Butoxy)-2-(1-(4-fluorobenzoyl)-6-methyl-4-(p-tolyl)indolin-5-yl)acetic acid] was 7 nM; that for `COc1c(F)ccc(F)c1C(=O)N1CCc2c1cc(C)c([C@H](OC(C)(C)C)C(=O)O)c2-c1ccc(C)cc1` [Example 15, (S)-2-(tert-Butoxy)-2-(1-(3,6-difluoro-2-methoxybenzoyl)-6-methyl-4-(p-tolyl)indolin-5-yl)acetic acid] was 117 nM. The value for `COc1cccc(C(=O)N2CCc3c2cc(C)c([C@H](OC(C)(C)C)C(=O)O)c3-c2ccc(C)cc2)c1` [Example 16, (S)-2-(tert-Butoxy)-2-(1-(3-methoxybenzoyl)-6-methyl-4-(p-tolyl)indolin-5-yl)acetic acid] was 12 nM; that for `COc1ccccc1C(=O)N1CCc2c1cc(C)c([C@H](OC(C)(C)C)C(=O)O)c2-c1ccc(C)cc1` [Example 17, (S)-2-(tert-Butoxy)-2-(1-(2-methoxybenzoyl)-6-methyl-4-(p-tolyl)indolin-5-yl)acetic acid] was 11 nM; that for `Cc1ccc(-c2c3c(cc(C)c2[C@H](OC(C)(C)C)C(=O)O)N(C(=O)c2ccccc2F)CC3)cc1` [Example 18, (S)-2-(tert-Butoxy)-2-(1-(2-fluorobenzoyl)-6-methyl-4-(p-tolyl)indolin-5-yl)acetic acid] was 11 nM. The compound `Cc1ccc(-c2c3c(cc(C)c2[C@H](OC(C)(C)C)C(=O)O)N(C(=O)c2ccc(F)cc2Cl)CC3)cc1` [Example 19, (S)-2-(tert-Butoxy)-2-(1-(2-chloro-4-fluorobenzoyl)-6-methyl-4-(p-tolyl)indolin-5-yl)acetic acid] registered an IC50 of 5 nM. The value for `COc1cccc(C(=O)N2CCc3c2cc(C)c([C@H](OC(C)(C)C)C(=O)O)c3-c2ccc(C)cc2)c1F` [Example 20, (S)-2-(tert-Butoxy)-2-(1-(2-fluoro-3-methoxybenzoyl)-6-methyl-4-(p-tolyl)indolin-5-yl)acetic acid] was 66 nM; that for `COc1cc(F)ccc1C(=O)N1CCc2c1cc(C)c([C@H](OC(C)(C)C)C(=O)O)c2-c1ccc(C)cc1` [Example 21, (S)-2-(tert-Butoxy)-2-(1-(4-fluoro-2-methoxybenzoyl)-6-methyl-4-(p-tolyl)indolin-5-yl)acetic acid] was 9 nM; that for `Cc1ccc(-c2c3c(cc(C)c2[C@H](OC(C)(C)C)C(=O)O)N(C(=O)c2ccc(Cl)cc2)CC3)cc1` [Example 22, (S)-2-(tert-Butoxy)-2-(1-(4-chlorobenzoyl)-6-methyl-4-(p-tolyl)indolin-5-yl)acetic acid] was 11 nM.

Turning to `Cc1ccc(-c2c3c(cc(C)c2[C@H](OC(C)(C)C)C(=O)O)N(C(=O)OC(C)(C)C)CC3)cc1` [Example 24, (S)-2-(tert-Butoxy)-2-(1-(tert-butoxycarbonyl)-6-methyl-4-(p-tolyl)indolin-5-yl)acetic acid], the IC50 was found to be 47 nM. With `Cc1ccc(-c2c3c(cc(C)c2[C@H](OC(C)(C)C)C(=O)O)N(C(=O)CC2CCCCC2)CC3)cc1` [Example 25, (S)-2-(tert-Butoxy)-2-(1-(2-cyclohexylacetyl)-6-methyl-4-(p-tolyl)indolin-5-yl)acetic acid] the figure was 43 nM. With `Cc1ccc(-c2c3c(cc(C)c2[C@H](OC(C)(C)C)C(=O)O)N(C(=O)c2nc(C)sc2C)CC3)cc1` [Example 26, (S)-2-(tert-Butoxy)-2-(1-(2,5-dimethylthiazole-4-carbonyl)-6-methyl-4-(p-tolyl)indolin-5-yl)acetic acid] the figure was 123 nM; with `COc1c(F)cccc1C(=O)N1CCc2c1cc(C)c([C@H](OC(C)(C)C)C(=O)O)c2-c1ccc(C)cc1` [Example 27, (S)-2-(tert-Butoxy)-2-(1-(3-fluoro-2-methoxybenzoyl)-6-methyl-4-(p-tolyl)indolin-5-yl)acetic acid], 7 nM.

`Cc1ccc(-c2c3c(cc(C)c2[C@H](OC(C)(C)C)C(=O)O)N(S(=O)(=O)C2CCCCC2)CC3)cc1` [Example 28, (S)-2-(tert-Butoxy)-2-(1-(cyclohexylsulfonyl)-6-methyl-4-(p-tolyl)indolin-5-yl)acetic acid]: the IC50 was found to be 11400 nM.

As for `Cc1ccc(-c2c3c(cc(C)c2[C@H](OC(C)(C)C)C(=O)O)N(C(=O)c2cccc(F)c2)CC3)cc1` [Example 29, (S)-2-(tert-Butoxy)-2-(1-(3-fluorobenzoyl)-6-methyl-4-(p-tolyl)indolin-5-yl)acetic acid], the IC50 is 17 nM.

Compound `Cc1ccc(-c2c3c(cc(C)c2[C@H](OC(C)(C)C)C(=O)O)N(C(=O)c2cccc(F)c2C)CC3)cc1` [Example 30, (S)-2-(tert-Butoxy)-2-(1-(3-fluoro-2-methylbenzov)-6-methyl-4-(p-tolyl)indolin-5-yl)acetic acid] displayed an IC50 of 8 nM.

The compound `Cc1ccc(-c2c3c(cc(C)c2[C@H](OC(C)(C)C)C(=O)O)N(C(=O)c2ccc(C)c(F)c2)CC3)cc1` [Example 31, (S)-2-(tert-Butoxy)-2-(1-(3-fluoro-4-methylbenzov)-6-methyl-4-(p-tolyl)indolin-5-yl)acetic acid] showed an IC50 of 12 nM. With `Cc1ccc(-c2c3c(cc(C)c2[C@H](OC(C)(C)C)C(=O)O)N(C(=O)c2cc(C)cc(F)c2)CC3)cc1` [Example 32, (S)-2-(tert-Butoxy)-2-(1-(3-fluoro-5-methylbenzov)-6-methyl-4-(p-tolyl)indolin-5-yl)acetic acid] the figure was 11 nM. Regarding `Cc1ccc(-c2c3c(cc(C)c2[C@H](OC(C)(C)C)C(=O)O)N(C(=O)c2cc(F)ccc2C)CC3)cc1` [Example 33], the IC50 turned out to be 13 nM. The value for `Cc1ccc(-c2c3c(cc(C)c2[C@H](OC(C)(C)C)C(=O)O)N(C(=O)Cc2ccc(F)c(F)c2)CC3)cc1` [Example 34, (S)-2-(tert-Butoxy)-2-(1-(2-(3,4-difluorophenyl)acetyl)-6-methyl-4-(p-tolyl)indolin-5-yl)acetic acid] was 69 nM. With `Cc1ccc(-c2c3c(cc(C)c2[C@H](OC(C)(C)C)C(=O)O)N(S(=O)(=O)c2ccc(F)c(F)c2)CC3)cc1` [Example 35, (S)-2-(tert-Butoxy)-2-(1-((3,4-difluorophenyl)sulfonyl)-6-methyl-4-(p-tolyl)indolin-5-yl)acetic acid] the figure was 9800 nM; with `Cc1ccc(-c2c3c(cc(C)c2[C@H](OC(C)(C)C)C(=O)O)N(S(=O)(=O)N2CCCCC2)CC3)cc1` [Example 36, (S)-2-(tert-Butoxy)-2-(6-methyl-1-(piperidin-1-ylsulfonyl)-4-(p-tolyl)indolin-5-yl)acetic acid], 65 nM. With `Cc1ccc(-c2c3c(cc(C)c2[C@H](OC(C)(C)C)C(=O)O)N(C(=O)NC2CCCCC2)CC3)cc1` [Example 37, (S)-2-(tert-Butoxy)-2-(1-(cyclohexylcarbamoyl)-6-methyl-4-(p-tolyl)indolin-5-yl)acetic acid] the figure was 80 nM; with `Cc1ccc(-c2c3c(cc(C)c2[C@H](OC(C)(C)C)C(=O)O)N(C(=O)c2ccccn2)CC3)cc1` [Example 38, (S)-2-(tert-Butoxy)-2-(6-methyl-1-picolinoyl-4-(p-tolyl)indolin-5-yl)acetic acid], 18 nM. Turning to `Cc1ccc(-c2c3c(cc(C)c2[C@H](OC(C)(C)C)C(=O)O)N(C(=O)c2cccnc2)CC3)cc1` [Example 39, (S)-2-(tert-Butoxy)-2-(6-methyl-1-nicotinoyl-4-(p-tolyl)indolin-5-yl)acetic acid], the IC50 is 27 nM.

Take `Cc1ccc(-c2c3c(cc(C)c2[C@H](OC(C)(C)C)C(=O)O)N(C(=O)c2ccncc2)CC3)cc1` [Example 40, (S)-2-(tert-Butoxy)-2-(1-isonicotinoyl-6-methyl-4-(p-tolyl)indolin-5-yl)acetic acid]: the IC50 was found to be 283 nM. With `Cc1ccc(-c2c3c(cc(C)c2[C@H](OC(C)(C)C)C(=O)O)N(C(=O)C2CCCCC2)CC3)cc1` [Example 41, (S)-2-(tert-Butoxy)-2-(1-(cyclohexanecarbonyl)-6-methyl-4-(p-tolyl)indolin-5-yl)acetic acid], the IC50 was 17 nM.

As for `Cc1ccc(-c2c3c(cc(C)c2[C@H](OC(C)(C)C)C(=O)O)N(C(=O)c2ccc(F)c(F)c2)CC3)cc1` [Example 42, (S)-2-(tert-Butoxy)-2-(1-(3,4-difluorobenzoyl)-6-methyl-4-(p-tolyl)indolin-5-yl)acetic acid], the IC50 came out at 5 nM. The value for `Cc1ccc(-c2c3c(cc(C)c2[C@H](OC(C)(C)C)C(=O)O)N(C(=O)c2cccc(F)c2F)CC3)cc1` [Example 43, (S)-2-(tert-Butoxy)-2-(1-(2,3-difluorobenzoyl)-6-methyl-4-(p-tolyl)indolin-5-yl)acetic acid] was 10 nM; that for `Cc1ccc(-c2c3c(cc(C)c2[C@H](OC(C)(C)C)C(=O)O)N(C(=O)c2ccc(F)cc2C)CC3)cc1` [Example 44, (S)-2-(tert-Butoxy)-2-(1-(4-fluoro-2-methylbenzoyl)-6-methyl-4-(p-tolyl)indolin-5-yl)acetic acid] was 6 nM; that for `COc1cc(C(=O)N2CCc3c2cc(C)c([C@H](OC(C)(C)C)C(=O)O)c3-c2cc(F)c3c(c2C)CCCO3)ccc1C` [Example 71, (S)-2-(tert-Butoxy)-2-((R)-4-(8-fluoro-5-methylchroman-6-yl)-1-(3-methoxy-4-methylbenzoyl)-6-methylindolin-5-yl)acetic acid] was 4 nM.

Values taken from patent US20190284136A1, “INDOLINE DERIVATIVES” (ViiV HEALTHCARE UK LIMITED, priority 2016, published 2019).
